Source: patent publication US20200277268A1, “PENTAFLUOROPHENYL SULFONAMIDE COMPOUNDS, COMPOSITIONS AND USES THEREOF” (DALRIADA THERAPEUTICS INC., priority 2017, published 2020)

Assays:
MOLM13 = assay: CellTiter-Blue cell viability, MOLM13; assay type: cell-based; details: Homo sapiens, MOLM-13; AML cell line, 72 hours
Procedure: (§1) The anti-cancer efficacy of exemplary compounds of the application were assessed in vitro against different cancer cell lines. Cell viability was examined following treatment at various concentrations of inhibitor (0.097656-50 μM) using a CellTiter-Blue® cell viability assay. 1×10^4 cells/well were plated in 96-well assay plates in culture medium. All cells were grown in DMEM, IMDM and RPMI-1640 supplemented with 10% fetal bovine serum (FBS). In some instances, FBS was removed for periods ranging from 16-24 hours, and re-introduced with test compound addition. After 24 hrs, test compounds and vehicle controls were added to appropriate wells such that the final volume was 100 μl in each well. The cells were cultured for the desired test exposure period (72 hours) at 37° C. and 5% CO2. The assay plates were removed from 3° C. incubator and 20 μl/well of CellTiter-Blue® Reagent was added. The plates were incubated using standard cell culture conditions for 1-4 hours. Afterwards, the plates were shaken for 10 seconds and florescence was recorded at 560/590 nm using a Cytation 3 spectrophotometer. IC50 values were determined using non-linear regression analysis with GraphPad Prism 6.0 (GraphPad Software Inc.).

MV4-11 = assay: CellTiter-Blue cell viability, MV4-11; assay type: cell-based; details: for IC50: Homo sapiens, MV4-11, AML cell line, 72 hours
Procedure: as §1

[1] = system: UFMylation pathway (UBA5, UFC1, UFM1, c-Myc) in MV4-11 cells; assay: Western blot of UFMylation pathway in MV4-11 cells; assay type: cell-based; details: 8 hours, 0 to 1 μM
Procedure: Post-treatment (8 hours) of MV4-11 cells with I-1 test compound at 1, 0.5, 0.25, 0.1 and 0 μM concentrations, all cells were lysed with radioimmunoprecipitation assay (RIPA) buffer: 20 mM Tris pH 7.4, 150 mM NaCl, 0.5% deoxycholate, 1% Triton X-100, 0.1% sodium dodecyl sulfate (SDS). Total protein was measured using BCA assay (Sigma). In each assay, clarified protein were resolved on a 4%-15% polyacrylamideSDS gel and transferred to a PVDF membrane (Bio-Rad). The membranes were blocked with 5% solution of skim milk powder in TBST and incubated for at least 1 hour followed by an overnight incubation at 4° C. in primary antibody (1:1000 dilution). Blots were probed with antibodies against UBA5, UFM1, UFC1, c-Myc, and beta-actin was used as a loading control (Santa Cruz Biotechnology catalog # sc-835). The PVDF membrane then washed with TBST (3 times for 5 minutes). A horseradish peroxides (HRP)-conjugated goat anti-mouse IgG secondary antibodies (Cell signaling Catalog #7076S) was applied to the membrane (1:5000 dilution) and incubated for 1 hour at room temperature. The blots were then rinsed again 3 times in TBST for 10 minutes. Bands were visualized using clarity western ECL substrate luminal/enhancer solution and peroxide solution 1:1 ratio for HRP secondary antibody, according to the manufacturer's instructions (Bio-Rad) and analyzed using Image lab software (Bio-Rad).

[2] = system: healthy human lung cells (MRC9); assay: CellTiter-Blue cell viability, MRC9; assay type: cell-based; details: non-cancerous, 72 hours
Procedure: as §1

GBM8 = assay: Proliferation of patient derived GBM BTIC line GBM8; assay type: cell-based; details: 62.5, 125, 250 nM, four days
Procedure: (§2) Glioblastoma (GBM) tumor cells with stem-cell properties termed brain tumor initiating cells (BTICs,) are enriched using serum-free culture. Effects of select exemplary compounds were tested on cell proliferation in patient derived GBM BTIC lines: GBM8 and BT428. GBM BTICs were cultured in NeuroCult™ NS-A Proliferation Medium (STEMcell Technologies) supplemented with epidermal growth factor (20 ng/mL), basic fibroblast growth factor (10 ng/mL) and 2 ug/mL of Heparin. The cells were dissociated into single cells and viable cells sorted into 96 well plate at a density of 1000 cells/well. The cells were then treated with varying doses of selected compounds (250 nM, 125 nM, 62.5 nM) with three technical replicates per dilution. DMSO was used as control. Four days following the addition of compounds, the proliferative capacity of GBM BTICs was assessed using PrestoBlue Cell Viability reagent (Invitrogen).

[3] = system: primary human fibroblast cells (PHF); assay: CellTiter-Blue cell viability, PHF; assay type: cell-based; details: non-cancerous, 72 hours
Procedure: as §1

[4] = system: healthy keratinocyte cells (HaCaT); assay: CellTiter-Blue cell viability, HaCaT; assay type: cell-based; details: Homo sapiens, non-cancerous, 72 hours
Procedure: as §1

D458 = assay: Cell viability, medulloblastoma D458; assay type: cell-based; details: medulloblastoma cell line
Procedure: as §1, with “Inc.). […]” for “Inc.).”

ATCC3034 = assay: Cell viability, medulloblastoma ATCC3034; assay type: cell-based; details: medulloblastoma cell line
Procedure: as §1, with “Inc.). […]” for “Inc.).”

[5] = Intrinsic clearance in mouse hepatocytes
Procedure: (§3) A stock of 100 μM test compound was prepared by diluting the 10 mM I-1 test compound in DMSO with a solution of 50% acetonitrile and 50% water. In a 96-well non-coated plate, 198 μL of hepatocytes was pipetted, and the plate was placed in the incubator on an orbital shaker to allow the hepatocytes to warm for 10 minutes. To this solution 2 μL of the 100 μM I-1 was added to start the reaction, and the plate was placed on an orbital shaker. […] The reaction solution was then vortexed for 10 minutes and centrifuged at 4,000 rpm for 30 minutes at 4° C. Next, 400 μL of the supernatant was transferred to one new 96-well plate, centrifuged at 4,000 rpm for 30 minutes at 4° C., and 100 μL of the supernatant was transferred to a new 96-well plate ensuring the pellet was not disturbed. 100 μL of ultrapure water was added to all samples for analysis by LC-MS/MS.
Injection volume was 10 μL.

D425 = assay: Cell viability, medulloblastoma D425; assay type: cell-based; details: medulloblastoma cell line
Procedure: as §1, with “Inc.). […]” for “Inc.).”

BT428 = assay: Proliferation of patient derived GBM BTIC line BT428; assay type: cell-based; details: 62.5, 125, 250 nM, four days
Procedure: as §2

in vitro = details: mouse, hepatocytes
Procedure: as §3
Injection volume was 10 μL.

Row | SMILES | IC50 (MOLM13) [µM] | IC50 (MV4-11) [µM] | IC50 [2] [µM] | IC50 [3] [µM] | further results
1 | O=S(=O)(c1c(F)c(F)c(F)c(F)c1F)N(Cc1ccccc1F)C1CC1 [Compound I-40, N-cyclopropyl-2,3,4,5,6-pentafluoro-N-(2-fluorobenzyl)benzenesulfonamide] | 3.2 | 0.33 |  |  | reduction of UBA5 levels and UFC1-UFM1 conjugate levels [1]: comparable activity to I-1
2 | O=S(=O)(c1c(F)c(F)c(F)c(F)c1F)N(Cc1ncc(F)cc1F)C1CC1 [Compound I-37, N-cyclopropyl-N-((3,5-difluoropyridin-2-yl)methyl)-2,3,4,5,6-pentafluorobenzenesulfonamide] | 2.89 | 1.69 | 22 | 8.7 | effect on cell proliferation in GBM8 (GBM8): show potency
3 | COc1ccc(CN(C2CC2)S(=O)(=O)c2c(F)c(F)c(F)c(F)c2F)cc1 [Compound I-8, N-cyclopropyl-2,3,4,5,6-pentafluoro-N-(4-methoxybenzyl)benzenesulfonamide] | 0.73 | 0.93 |  |  | IC50 [4]: 17.4 µM
4 | N#Cc1ccc(CN(C2CC2)S(=O)(=O)c2c(F)c(F)c(F)c(F)c2F)cc1 [Compound I-23, N-(4-cyanobenzyl)-N-cyclopropyl-2,3,4,5,6-pentafluorobenzenesulfonamide] | 2.58 | 0.99 | 7.8 | 5.5 | 
5 | O=S(=O)(c1c(F)c(F)c(F)c(F)c1F)N(Cc1c(F)cc(F)cc1F)C1CCC1 [Compound I-47, N-cyclobutyl-2,3,4,5,6-pentafluoro-N-(2,4,6-trifluorobenzyl)benzenesulfonamide] | 8.4 | 1.14 | 15.7 | 3.7 | 
6 | O=S(=O)(c1c(F)c(F)c(F)c(F)c1F)N(Cc1ccc(C(F)(F)F)cc1)C1CC1 [Compound I-25, N-cyclopropyl-2,3,4,5,6-pentafluoro-N-(4-(trifluoromethyl)benzyl)benzenesulfonamide] | 1.05 | 0.95 |  | 3 | 
7 | O=S(=O)(c1c(F)c(F)c(F)c(F)c1F)N(Cc1ccc(Cl)cc1)C1CC1 [Compound I-7, N-(4-chlorobenzyl)-N-cyclopropyl-2,3,4,5,6-pentafluorobenzenesulfonamide] | 3.5 | 1.37 | 16.4 | 2.7 | IC50 (D458): 2 µM; IC50 (ATCC3034): 0.3 µM; half-life at 1 μM [5]: 1.92 h; IC50 (D425): 1.4 µM
8 | CC(C)(C)C(=O)N(Cc1ccc(F)cc1)S(=O)(=O)c1c(F)c(F)c(F)c(F)c1F [Compound I-54, N-(4-fluorobenzyl)-N-((perfluorophenyl)sulfonyl)pivalamide] | 1.7 | 0.7 |  | 3 | 
9 | O=S(=O)(c1c(F)c(F)c(F)c(F)c1F)N(Cc1ncccc1C(F)(F)F)C1CC1 [Compound I-43, N-cyclopropyl-2,3,4,5,6-pentafluoro-N-((3-(trifluoromethyl)pyridin-2-yl)methyl)benzenesulfonamide] | 4.1 | 1.67 | 8.4 |  | effect on cell proliferation in BT428 (BT428): show potency
10 | CC(C)N(Cc1ccc(F)cc1F)S(=O)(=O)c1c(F)c(F)c(F)c(F)c1F [Compound I-49, N-(2,4-difluorobenzyl)-2,3,4,5,6-pentafluoro-N-isopropylbenzenesulfonamide] | 4.2 | 1.01 | 16.7 | 4.5 | 
11 | O=S(=O)(c1c(F)c(F)c(F)c(F)c1F)N(Cc1ccc(F)cn1)C1CC1 [Compound I-13, N-cyclopropyl-2,3,4,5,6-pentafluoro-N-((5-fluoropyridin-2-yl)methyl)benzenesulfonamide] | 1.1 | 1.7 | 25 | 5.5 | 
12 | O=S(=O)(c1ccc(F)cc1)N(Cc1ccc(F)cc1)C1CC1 [Comparative Example 3, N-cyclopropyl-4-fluoro-N-(4-fluorobenzyl)benzenesulfonamide, reference compound] | > 25 | > 25 | > 25 |  | activity in AML cells (MV4-11; AML cells (MV4-11 and MOLM13)): inactive; IC50 [4]: > 25 µM
13 | COc1ccc(NS(=O)(=O)c2c(F)c(F)c(F)c(F)c2F)cc1F [Batabulin] |  |  |  |  | half-life at 1 μM (in vitro): 0.298 h
14 | O=S(=O)(c1c(F)c(F)c(F)c(F)c1F)N(Cc1ccc(F)cc1)CC1CC1 [Compound I-2, N-(cyclopropylmethyl)-2,3,4,5,6-pentafluoro-N-(4-fluorobenzyl)benzenesulfonamide] | 1.6 | 0.85 | 7.7 | 2.9 | 
15 | NC(=O)c1ccc(CN(C2CC2)S(=O)(=O)c2c(F)c(F)c(F)c(F)c2F)cc1 [Compound I-20, 4-(((N-cyclopropyl-2,3,4,5,6-pentafluorophenyl)sulfonamido)methyl)benzamide] | 1.7 | 1.05 |  | 4.9 | 
16 | O=S(=O)(c1c(F)c(F)c(F)c(F)c1F)N(Cc1ccc(F)cc1)C1CCC1 [Compound I-55, N-cyclobutyl-2,3,4,5,6-pentafluoro-N-(4-fluorobenzyl)benzenesulfonamide] | 0.73 | 0.43 |  | 2.5 | reduction of UBA5 levels and UFC1-UFM1 conjugate levels [1]: comparable activity to I-1
17 | CC(C)N(Cc1ccc(F)cc1)S(=O)(=O)c1c(F)c(F)c(F)c(F)c1F [Compound I-16, 2,3,4,5,6-pentafluoro-N-(4-fluorobenzyl)-N-isopropylbenzenesulfonamide] | 3.5 | 1.2 | 25 | 7.2 | 
18 | CC(C)N(Cc1ccccc1F)S(=O)(=O)c1c(F)c(F)c(F)c(F)c1F [Compound I-48] | 4.11 | 1.19 | 15 | 3 | 
19 | O=S(=O)(c1c(F)c(F)c(F)c(F)c1F)N(Cc1c(F)cc(F)cc1F)C1CC1 [Compound I-36, N-cyclopropyl-2,3,4,5,6-pentafluoro-N-(2,4,6-trifluorobenzyl)benzenesulfonamide] | 6.81 | 1.52 | 26 | 8.1 | 
20 | O=S(=O)(c1c(F)c(F)c(F)c(F)c1F)N(Cc1ccc(F)nc1)C1CC1 [Compound I-12, N-cyclopropyl-2,3,4,5,6-pentafluoro-N-((6-fluoropyridin-3-yl)methyl)benzenesulfonamide] | 3.07 | 1.35 | 18 | 5 | 
